The numbers were not newly measured in patent US11874283B2, “Method and compositions for the treatment and detection of endothelin-1 related kidney diseases” (MOREHOUSE SCHOOL OF MEDICINE, priority 2010, dated 2024), which cites them from elsewhere.

Ends that are not written are not given here.

The data set concerns ET-1 ELISA. The settings on record: as determined by the manufacturer.
With “big ET-1: biologically inactive 38-amino acid precursor of ET-1 (CSCSSLMDKECVYFCHLDIIWVNTPEHVVPYGLGSPRS; ends and bridges not checked; cysteine pairing not given here; UniProt P05305 53-90, looked up)”, the Cross reactivity entry is recorded as “less than 1%”.

Turning to “ET-3: endothelin peptide cross-reacting in the ET-1 ELISA (CTCFTYKDKECVYYCHLDIIW; ends and bridges not checked; cysteine pairing not given here; UniProt P14138 97-117, looked up)”, the Cross reactivity was 14%. As for “ET-2: endothelin peptide cross-reacting in the ET-1 ELISA (CSCSSWLDKECVYFCHLDIIW; ends and bridges not checked; cysteine pairing not given here; UniProt P20800 49-69, looked up)”, the Cross reactivity was 45%.
